Drawing on patent US20170334899A1, “AMINO-SUBSTITUTED ISOTHIAZOLES” (Bayer Pharma Aktiengesellschaft, priority 2014, published 2017), this text covers IC50 for 24 molecules.

A value given as a limit tells only on which side of the number the result lay.

Test [1] has as its target T1, CDK2/CycE (Homo sapiens, UniProt P24941).
T1 construct: GST; purchased ProQinase GmbH (Freiburg, Germany); host or cells: insect cells (Sf9)
Nature of the test: CDK2/CycE kinase assay (TR-FRET). Format: biochemical. Particulars: avg, read-out: CDK2 avg (IC50 [mol/l]). The method in brief: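 GST-tagged human CDK2 and CycE from Sf9 cells, preincubated 15 min with compound, then 25 min at 22° C. with 10 μM ATP and 0.75 μM biotinylated Rb-derived peptide (final). Phospho-substrate read by TR-FRET (anti-pRB pSer807/pSer811, Eu anti-mouse IgG, streptavidin-XL665), 665/620 nm ratio, normalised to no-inhibitor and no-enzyme controls.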

Test [2] has as its system human cervical tumor cell line HeLa (ATCC CCL-2). Kind of test: SAC-Formation - Nocodazole-Induced Assay. Format: cell-based. Particulars: Homo sapiens, HeLa, 24 h, HeLa cells, nocodazole 0.1 μg/ml together with test compound, decrease of mitotic cells (phospho-histone H3 Ser10). The method in brief: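 HeLa cells, plated overnight, were treated 24 h at 37 °C with nocodazole (0.1 μg/ml final) plus test compound (0.005–20 μM, 0.5% DMSO) added at the same time. After fixation, anti-phospho-histone H3 Ser10 and Hoechst staining gave the mitotic cell fraction by imaging. Values came from four-parameter Hill fits.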

Regarding `Cc1nsc(Nc2cnc(C(F)(F)F)cn2)c1C(=O)Nc1ccc(F)c(OC2CCN(CC(F)(F)F)CC2)c1` [Example 264, N-(4-fluoro-3-{[1-(2,2,2-trifluoroethyl)piperidin-4-yl]oxy}phenyl)-3-methyl-5-{[5-(trifluoromethyl)pyrazin-2-yl]amino}-1,2-thiazole-4-carboxamide], the figures for the IC50 in test [1] and in test [2] were > 20000 nM and 35 nM, respectively.

Regarding `Cc1nsc(Nc2cnc(C(F)(F)F)cn2)c1C(=O)Nc1ccc(F)c(OC2CCN(CC(F)F)CC2)c1` [Example 265, N-(3-{[1-(2,2-difluoroethyl)piperidin-4-yl]oxy}-4-fluorophenyl)-3-methyl-5-{[5-(trifluoromethyl)pyrazin-2-yl]amino}-1,2-thiazole-4-carboxamide], the values for the IC50 in test [1] and in test [2] were > 20000 nM and 190 nM, respectively.

As for `Cc1nsc(Nc2cnc(C(F)(F)F)cn2)c1C(=O)Nc1ccc(F)c(OC2CCN(CCF)CC2)c1` [Example 266, N-(4-fluoro-3-{[1-(2-fluoroethyl)piperidin-4-yl]oxy}phenyl)-3-methyl-5-{[5-(trifluoromethyl)pyrazin-2-yl]amino}-1,2-thiazole-4-carboxamide], the IC50 in test [1] is > 20000 nM; in test [2], 150 nM.

Regarding `Cc1nsc(Nc2cncc(C(F)(F)F)n2)c1C(=O)Nc1ccc(F)c(OC2CCN(CC(F)(F)F)CC2)c1` [Example 267, N-(4-fluoro-3-{[1-(2,2,2-trifluoroethyl)piperidin-4-yl]oxy}phenyl)-3-methyl-5-{[6-(trifluoromethyl)pyrazin-2-yl]amino}-1,2-thiazole-4-carboxamide], the IC50 in test [1] was > 20000 nM; in test [2], 47 nM.

With `Cc1nsc(Nc2cncc(C(F)(F)F)n2)c1C(=O)Nc1ccc(F)c(OC2CCN(CC(F)F)CC2)c1` [Example 268, N-(3-{[1-(2,2-difluoroethyl)piperidin-4-yl]oxy}-4-fluorophenyl)-3-methyl-5-{[6-(trifluoromethyl)pyrazin-2-yl]amino}-1,2-thiazole-4-carboxamide], the results for the IC50 in test [1] and in test [2] were > 20000 nM and 38 nM, respectively.

As to `Cc1nsc(Nc2cncc(C(F)(F)F)n2)c1C(=O)Nc1ccc(F)c(OC2CCN(CCF)CC2)c1` [Example 269, N-(4-fluoro-3-{[1-(2-fluoroethyl)piperidin-4-yl]oxy}phenyl)-3-methyl-5-{[6-(trifluoromethyl)pyrazin-2-yl]amino}-1,2-thiazole-4-carboxamide], the IC50 in test [1] is > 20000 nM; in test [2], 120 nM.

As to `Cc1nsc(Nc2cnc(C(F)(F)F)cn2)c1C(=O)Nc1ccc(C(=O)NC2CN(CC(F)(F)F)C2)cc1` [Example 270, 3-methyl-N-(4-{[1-(2,2,2-trifluoroethyl)azetidin-3-yl]carbamoyl}phenyl)-5-{[5-(trifluoromethyl)pyrazin-2-yl]amino}-1,2-thiazole-4-carboxamide], the IC50 in test [1] was > 20000 nM; in test [2], 950 nM.

Regarding `Cc1nsc(Nc2cnc(C(F)(F)F)cn2)c1C(=O)Nc1ccc(C(=O)NC2CN(CC(F)F)C2)cc1` [Example 271, N-(4-{[1-(2,2-difluoroethyl)azetidin-3-yl]carbamoyl}phenyl)-3-methyl-5-{[5-(trifluoromethyl)pyrazin-2-yl]amino}-1,2-thiazole-4-carboxamide], the values for the IC50 in test [1] and in test [2] were > 20000 nM and 1100 nM, respectively.

In the case of `Cc1nsc(Nc2cncc(C(F)(F)F)n2)c1C(=O)Nc1ccc(C(=O)N2CCN(CC(F)(F)F)CC2)cc1` [Example 272, 3-methyl-N-(4-{[4-(2,2,2-trifluoroethyl)piperazin-1-yl]carbonyl}phenyl)-5-{[6-(trifluoromethyl)pyrazin-2-yl]amino}-1,2-thiazole-4-carboxamide], the IC50 in test [1] is > 20000 nM; in test [2] it was 230 nM.

In the case of `Cc1nsc(Nc2cncc(C(F)(F)F)n2)c1C(=O)Nc1ccc(C(=O)N2CCN(CC(F)F)CC2)cc1` [Example 273, N-(4-{[4-(2,2-difluoroethyl)piperazin-1-yl]carbonyl}phenyl)-3-methyl-5-{[6-(trifluoromethyl)pyrazin-2-yl]amino}-1,2-thiazole-4-carboxamide], the results for the IC50 in test [1] and in test [2] were > 20000 nM and 1100 nM, respectively.

Take `Cc1nsc(Nc2cncc(C(F)(F)F)n2)c1C(=O)Nc1ccc(C(=O)N2CCN(CCF)CC2)cc1` [Example 274, N-(4-{[4-(2-fluoroethyl)piperazin-1-yl]carbonyl}phenyl)-3-methyl-5-{[6-(trifluoromethyl)pyrazin-2-yl]amino}-1,2-thiazole-4-carboxamide]: the IC50 in test [1] came out at 5400 nM; in test [2] it was 140 nM.

With `CCN1CCN(C(=O)c2ccc(NC(=O)c3c(C)nsc3Nc3cncc(C(F)(F)F)n3)cc2)CC1` [Example 275, N-{4-[(4-ethylpiperazin-1-yl)carbonyl]phenyl}-3-methyl-5-{[6-(trifluoromethyl)pyrazin-2-yl]amino}-1,2-thiazole-4-carboxamide], the IC50 in test [1] was 8400 nM; in test [2], 840 nM.

On to `Cc1nsc(Nc2cncc(C(F)(F)F)n2)c1C(=O)Nc1ccc(OCCO)nc1` [Example 276, N-[6-(2-hydroxyethoxy)pyridin-3-yl]-3-methyl-5-{[6-(trifluoromethyl)pyrazin-2-yl]amino}-1,2-thiazole-4-carboxamide], for which the figures for the IC50 in test [1] and in test [2] were > 20000 nM and 350 nM, respectively.

For `Cc1nsc(Nc2cnc(C(F)(F)F)cn2)c1C(=O)Nc1ccc(OCCO)nc1` [Example 277, N-[6-(2-hydroxyethoxy)pyridin-3-yl]-3-methyl-5-{[5-(trifluoromethyl)pyrazin-2-yl]amino}-1,2-thiazole-4-carboxamide], the IC50 was > 20000 nM in test [1] and 650 nM in test [2].

Take `Cc1nsc(Nc2cncc(C(F)(F)F)n2)c1C(=O)Nc1ccc(OCCCO)nc1` [Example 278, N-[6-(3-hydroxypropoxy)pyridin-3-yl]-3-methyl-5-{[6-(trifluoromethyl)pyrazin-2-yl]amino}-1,2-thiazole-4-carboxamide]: the IC50 in test [1] was > 20000 nM; in test [2], 190 nM.

Turning to `Cc1nsc(Nc2cnc(C(F)(F)F)cn2)c1C(=O)Nc1ccc(OCCCO)nc1` [Example 279, N-[6-(3-hydroxypropoxy)pyridin-3-yl]-3-methyl-5-{[5-(trifluoromethyl)pyrazin-2-yl]amino}-1,2-thiazole-4-carboxamide], the IC50 is > 20000 nM in test [1] and 120 nM in test [2].

As for `Cc1nsc(Nc2cncc(C(F)(F)F)n2)c1C(=O)Nc1ccc(C(=O)NC2CN(CC(F)(F)F)C2)cc1` [Example 280, 3-methyl-N-(4-{[1-(2,2,2-trifluoroethyl)azetidin-3-yl]carbamoyl}phenyl)-5-{[6-(trifluoromethyl)pyrazin-2-yl]amino}-1,2-thiazole-4-carboxamide], the IC50 was determined as 11000 nM in test [1] and 670 nM in test [2].

`Cc1nsc(Nc2cnc3ccccc3n2)c1C(=O)Nc1cccc(NS(=O)(=O)C2CCN(CC(F)(F)F)CC2)c1` [Example 281, 3-methyl-5-(quinoxalin-2-ylamino)-N-[3-({[1-(2,2,2-trifluoroethyl)piperidin-4-yl]sulfonyl}amino)phenyl]-1,2-thiazole-4-carboxamide]: the figures for the IC50 in test [1] and in test [2] were > 20000 nM and 1200 nM, respectively.

As to `Cc1nsc(Nc2cnc3ccccc3n2)c1C(=O)Nc1cccc(NS(=O)(=O)C2CCN(CC(F)F)CC2)c1` [Example 282, N-[3-({[1-(2,2-difluoroethyl)piperidin-4-yl]sulfonyl}amino)phenyl]-3-methyl-5-(quinoxalin-2-ylamino)-1,2-thiazole-4-carboxamide], the IC50 was > 20000 nM in test [1] and 6700 nM in test [2].

Take `Cc1nsc(Nc2cnc(C(F)(F)F)cn2)c1C(=O)Nc1cccc(NC(=O)OC(C)(C)C)c1` [Example 284, 3-tert-butyl (3-{[(3-methyl-5-{[5-(trifluoromethyl)pyrazin-2-yl]amino}-1,2-thiazol-4-yl)carbonyl]amino}phenyl)carbamate]: the values for the IC50 in test [1] and in test [2] were > 20000 nM and 76 nM, respectively.

For `Cc1nsc(Nc2cnc3ccccc3n2)c1C(=O)Nc1cccc(NS(=O)(=O)C2CN(CC(F)(F)F)C2)c1` [Example 285, 3-methyl-5-(quinoxalin-2-ylamino)-N-[3-({[1-(2,2,2-trifluoroethyl)azetidin-3-yl]sulfonyl}amino)phenyl]-1,2-thiazole-4-carboxamide], the IC50 in test [1] was > 20000 nM; in test [2], 2200 nM.

Take `Cc1nsc(Nc2cnc3ccccc3n2)c1C(=O)Nc1cccc(NS(=O)(=O)C2CN(CCF)C2)c1` [Example 287, N-[3-({[1-(2-fluoroethyl)azetidin-3-yl]sulfonyl}amino)phenyl]-3-methyl-5-(quinoxalin-2-ylamino)-1,2-thiazole-4-carboxamide]: the IC50 in test [1] was > 20000 nM; in test [2], 7200 nM.

For the molecule `Cc1nsc(Nc2cnc3ccccc3n2)c1C(=O)Nc1cccc(NS(=O)(=O)C2CN(CCC(F)(F)F)C2)c1` [Example 288, 3-methyl-5-(quinoxalin-2-ylamino)-N-[3-({[1-(3,3,3-trifluoropropyl)azetidin-3-yl]sulfonyl}amino)phenyl]-1,2-thiazole-4-carboxamide], the IC50 in test [1] was > 20000 nM; in test [2], 7700 nM.

On to `Cc1nsc(Nc2cnc3ccccc3n2)c1C(=O)Nc1cccc(NS(=O)(=O)C2CCN(C(=O)OC(C)(C)C)C2)c1` (stereo not drawn) [Example 290, tert-butyl 3-{[3-({[3-methyl-5-(quinoxalin-2-ylamino)-1,2-thiazol-4-yl]carbonyl}amino)phenyl]sulfamoyl} pyrrolidine-1-carboxylate], for which the values for the IC50 in test [1] and in test [2] were 19000 nM and 2000 nM, respectively.
